According to patent US20070087400A1, “Covalent tethering of functional groups to proteins and substrates therefor” (priority 2004, published 2007):
pIC50: −log10 of the molar value. Read-outs that look alike come from different tables or passages of the source.

Key:
[1] = biological target: DhaA.H272F (Rhodococcus rhodochrous, UniProt P0A3G2, H272F); experiment: In vitro binding of Cl-alkanes with functional groups, SDS-PAGE with fluoroimager or HRP-streptavidin; conditions: dose dependent, 0.04-125 μM tested
Source text: (§1) Then the proteins were resolved on SDS-PAGE.

[2] = system: CHO-K1 cells
Protocol: (§2) Fresh media was then added to cells, and the cells were returned to the CO2 incubator at 37° C. The level of fluorescence in cells in 96 well plates was measured on fluorescent plate reader CytoFluor II (Beckman) at Eex/Eem equal 480/520 nm and 540/575 nm for carboxyfluorescein-and carboxytetramethylrhodamine-modified substrates, respectively. Fluorescent images of the cells were taken on inverted epifluorescent microscope Axiovert-100 (Carl Zeiss) with filter sets appropriate for detection of FITC and carboxytetramethylrhodamine.

[3] = system: E. coli; experiment: Permeability of plasma membrane of prokaryotic cells to substrates
[4] = biological target: DhaA.WT (Rhodococcus rhodochrous, UniProt P0A3G2); experiment: Hydrolysis of Cl-alkanes, pH-indicator dye (phenol red) assay; assay type: biochemical
Source text: To study the effect of a point mutation on the activity of DhaA (WT or mutant) hydrolysis of Cl-alkanes, a pH-indicator dye system as described by Holloway et al. (1998) was employed.

[5] = system: DhaA.H272 mutants, i.e. H272F/G/A/Q; experiment: In vitro binding and pretreatment blocking, SDS-PAGE; design: species or system Rhodococcus rhodochrous
Source text: FIG. 10 illustrates that pretreatment of a mutant DhaA with a substrate, biotin-C10H21NO2—Cl, blocks binding of another substrate. DhaA.WT-lanes 1 and 2; DhaA.H272 mutants: F, lanes 3 and 4; G, lanes 5 and 6; A, lanes 7 and 8; and Q, lanes 9 and 10. Samples 2, 4, 6, 8, and 10 were pretreated with biotin-C10H21NO2—Cl.
as §1

[6] = system: CHO-K1 cells; experiment: Toxicity of Cl-alkanes, CellTiter-Glo Luminescence Cell Viability Assay; assay type: cell-based
Protocol: To study the toxicity of Cl-alkanes, CHO-K1 cells were plated in 96 well plates to a density of 5,000 cells per well. […] Viability of the cells was measured with CellTiter-Glo™ Luminescence Cell Viability Assay (Promega) according to the manufacturer's protocol. Generally, 100 μl of CellTiter-Glo™ reagent was added directly to the cells and the luminescence was recorded at 10 minutes using a DYNEX MLX microtiter plate luminometer.

[7] = system: CHO-K1 cells; experiment: Permeability of cell membrane to substrates (uptake and wash-out)
Protocol: as §2

[8] = Tethering of R.Luc-DhaA fusions to streptavidin-coated plates via biotin Cl-alkane; conditions: pretreatment of R.Luc-connector-DhaA.H272F
Protocol: Translated proteins were contacted with biotin-C10H21N1O2—Cl substrate at 25 μM (final concentration), for 60 minutes at room temperature. Unbound biotin-C10H21N1O2—Cl was removed by gel-filtration on Sephadex G-25 prepackaged columns (Amersham Biosciences). Collected fractions of R.Luc-connector-DhaA fusions were placed in SA-coated 96-well plate for 1 hour at room temperature, unbound proteins were washed out and luciferase activity was measured.

[9] = biological target: streptavidin (Streptomyces avidinii, UniProt P22629); conditions: surface plasmon resonance; cited from earlier work
[10] = biological target: tetracysteine domain in a recombinant protein; conditions: cited from earlier work

O=C(CCCC[C@@H]1SC[C@@H]2NC(=O)N[C@@H]21)NCCOCCOCCCCCCCl [biotin-C10H21NO2—Cl]
concentration at which binding to DhaA.H272F could be detected [1]: 0.2 µM | permeability of plasma membrane of CHO-K1 cells [2]: permeable | permeability of plasma membrane of E. coli [3]: permeable

OCCCCCCCCCCCl [1-Cl-alkane-10-decanol]
initial rate of hydrolysis (IRH) ([4]; first 60 seconds after enzyme addition): much higher than the IRH of 1-Cl-decane

N-{2-[2-(6-Chlorohexyloxy)-ethoxy]-ethyl}-tetramethylrhodamine-5-(and -6)-amide
binding to DhaA.H272F/G/A/Q [5]: bound | toxicity after a 4 hour treatment ([6]; 100 μM (the highest concentration tested)): no toxicity | maximum non-toxic concentration ([6]; 24 hour treatment): 6.25 µM | pIC50 ([6]; 24 hour treatment, read-out: IC50 of reduction of relative luminescence): ~4.00 | permeability of plasma membrane of CHO-K1 cells [7]: permeable | permeability of plasma membrane of E. coli [3]: permeable | decrease of efficiency of capturing by pretreatment with non-biotinylated substrate [8]: about 80%

O=C(NCCOCCOCCCCCCCl)c1ccc(-c2c3ccc(=O)cc-3oc3cc(O)ccc23)c(C(=O)O)c1 [N-{2-[2-(6-Chlorohexyloxy)-ethoxyl-ethyl}-fluorescein-5-amide]
permeability of plasma membrane of CHO-K1 cells [7]: did not cross the plasma membrane

O=C(O)CCCC[C@@H]1SC[C@@H]2NC(=O)N[C@@H]21 [biotin]
on-rate [9]: 5e+06 M⁻¹ s⁻¹

O=C1OC2(c3ccccc31)c1ccc(O)c([As]3SCCS3)c1Oc1c2ccc(O)c1[As]1SCCS1 [FLASH, 4′,5′-bis(1,3,2-dithioarsolan-2-yl)fluorescein]
dissociation constant [10]: nanomolar or lower

CCCCCl [1-Cl-butane]
activity of the wild-type enzyme with the substrate ([4]; 0.1 mg/ml of enzyme and 10 mM substrate at pH 7.0-8.2): 5 units/mg of protein
